The subject of the experiment is HeLa S3. Nature of the experiment: Cytotoxicity against human HeLa S3 cells assessed as cell viability incubated for 48 hrs by microscopic analysis. The experiment is classed as functional, cell-based. Particulars: HeLa S3, 48 h.

pIC50: −log10 of the molar value.

The values below come from ChEMBL document CHEMBL5120899, “Sesquiterpene Lactones from Vernonia tufnelliae: Structural Characterization and Biological Evaluation” (J Nat Prod, 2022).

With `O=c1cc(-c2ccc(O)cc2)oc2cc(O)cc(O)c12` [APIGENIN], the negative-log IC50 (pIC50) – broadly, −log10 of the IC50, conventionally taken in molar units – was under 5.00.
Then `Oc1ccc(Cc2ccc(O)cc2)cc1`, with under 5.00; and `O=c1cc(-c2ccc(O)cc2)oc2cc(O[C@@H]3O[C@H](CO)[C@@H](O)[C@H](O)[C@H]3O)cc(O)c12` [APIGETRIN], with under 5.00; and `COc1cc2oc(-c3ccc(O)c(O)c3)cc(=O)c2c(O)c1O`, with under 5.00.
The value for `Oc1ccc(Cc2ccccc2O)cc1` was under 5.00.
Take `C=C(CO)C(=O)O[C@H]1C/C(C)=C/CC/C(CO)=C/[C@H]2OC(=O)[C@@H](CN[C@H](Cc3ccccc3)C(=O)O)[C@H]12`: the negative-log IC50 (pIC50) is under 5.00.
Then `O=Cc1c[nH]c2ccccc12` [3-FORMYLINDOLE], with under 5.00.
Then `C=C[C@@]1(C)C[C@@H](OC(=O)C(=C)CO)[C@H](C(=C)C(=O)OC/C2=C\[C@H]3OC(=O)C(=C)[C@@H]3[C@@H](OC(=O)C(=C)CO)C/C(C)=C/CC2)[C@@H](O)[C@@H]1C(=C)CO`, with under 5.00; and `C=C(CO)C(=O)O[C@H]1C/C(C)=C/CC/C(CO)=C/[C@H]2OC(=O)C(=C)[C@H]12`, with under 5.00; and `O=c1cc(-c2ccc(O)c(O)c2)oc2cc(O[C@@H]3O[C@H](CO)[C@@H](O)[C@H](O)[C@H]3O)cc(O)c12` [GALUTEOLIN], with under 5.00.
Take `C=C(CO)C(=O)O[C@H]1C/C(C)=C/CC/C(CO)=C/[C@H]2OC(=O)[C@@H](CN[C@@H](C(=O)O)C(C)C)[C@H]12`: the pIC50 is under 5.00.
Then `C=C(CO)C(=O)O[C@H]1C/C(C)=C/CC/C(CO)=C/[C@H]2OC(=O)[C@@H](CN3C[C@@H](CO)[C@]4(O)O[C@H]5C/C(C)=C/CC/C(CO)=C/[C@H]6OC(=O)[C@]4(C3)[C@H]56)[C@H]12`, with under 5.00; and `C=C(CO)C(=O)O[C@H]1C/C(C)=C/CC/C(CO)=C/[C@H]2OC(=O)[C@@H](CN[C@H](CC(C)C)C(=O)O)[C@H]12`, with under 5.00.
